In US12329753B2, “Phosphodiesterase inhibitor treatment” (Cyrano Therapeutics, Inc., priority 2008, dated 2025):
Marks after values point to notes of the source that are not given here.

Assays:
patients with hyposmia [1] = assay: Smell function tests (DT, RT, ME), forced-choice three-stimuli stepwise-staircase technique, open trial of oral theophylline; type: in vivo, human; settings: for detection threshold (DT), amyl acetate / detection threshold (DT), nitrobenzene / detection threshold (DT), pyridine / detection threshold (DT), thiophene / magnitude estimation (ME), amyl acetate / magnitude estimation (ME), nitrobenzene / magnitude estimation (ME), pyridine / magnitude estimation (ME), thiophene / recognition threshold (RT), amyl acetate / recognition threshold (RT), nitrobenzene / recognition threshold (RT), pyridine / recognition threshold (RT), thiophene: mean ± SEM
Text: Patients initially reported their sensory dysfunction as either loss of taste (i.e., flavor) and/or smell function. This subjective response was documented by objective psychophysical measurements of olfactory function administered to each patient by use of a forced-choice, three-stimuli, stepwise-staircase technique in a fixed, controlled design (1, 53). Efficacy of this technique and results of testing were previously documented in a double-blind clinical trial (53). Four odors were used; they were pyridine (dead-fish odor), nitrobenzene (bitter-almond odor), thiophene (petroleum-like odor) and amyl acetate (banana-oil odor). Detection thresholds (DT), recognition thresholds (RT) and magnitude estimation (ME) values for each odor were determined as previously described (1, 53). Thresholds were converted into bottle units (BU) as previously described (53) and results reported as M±SEM of correct responses for each odor in each treatment group; ME was reported in % and results calculated to obtain M±SEM for each treatment group for all correct responses using data for the four highest odor concentrations presented (from 10^−2M—an absolute odor concentration).
After determination of hyposmia, patients were treated in an open label, fixed design, controlled open trial. Patients were given an oral extended release theophylline in divided daily doses taken in the middle of breakfast and lunch. All patients were initially given 200 mg of theophylline; changes in this dose were made based upon subjective responses to therapy. If at a subsequent return visit, patients reported ≥5% subjective improvement in overall smell function, they continued on this same dose of theophylline and were reevaluated after four to six months of continued treatment. Results from any subsequent return from these improved patients were not included in any subsequent data report. All subsequent comparisons between treated and untreated patients were made only between those patients continuing in the study compared to their own measurements obtained in the untreated state. If patients reported <5% subjective improvement, their theophylline dose was increased by 200 mg daily and they were scheduled for retesting at the study site after two to four months at this new dosage. For patients that reported <5% improvement, this sequence continued until patients reached 800 mg of theophylline, at which time the study was considered completed.
Patients returned for reevaluation after two to four months of treatment. Measurements of blood serum theophylline were measured by a fluorescence polarization assay (Abbott, Chicago, IL). At this time, subjective changes in smell function were measured independently (compared to patient's memory of previous normal smell function monitored by use of the patients' daily measurements) using the scale from −100-0-+100 previously described (vs). After independently recording their subjective responses, smell function was measured for all four odors with DT, RT, ME and H determined without recourse to prior measurements.
Since data for all measurements from each patient group (local or distant) on each dose level were combined mean and SEM for each measurement (DT, RT, ME, H) of smell function for each treatment group were calculated on this basis. Differences in measurements between before treatment and each treatment level were calculated and significance of differences estimated using Student t tests (values p<0.05 considered significant). Some patient responses were also analyzed by use of non-parametric statistics (sign test) and the Spearman rank correlation technique; […] was considered significant related to smell loss type and treatment response. Since each patient served as his/her own control with respect to before and after treatment, paired t tests were also calculated; […] were considered significant. These values were not included in the results presented.

patients with hyposmia [2] = assay: Side effects of intranasal theophylline; type: in vivo, human; settings: intranasal 20 μg per naris once a day
Procedure: The patients inserted a plastic syringe containing 0.4 ml of fluid (20 μg theophylline) into each naris once a day. […] The drug dose was delivered through a plastic nipple which fitted snugly onto the filled syringe which was attached directly to the nipple. One nipple was supplied for each set of two syringes in each application kit. The patient fitted the nipple on one syringe, placed the nipple securely into the lower naris and injected the contents of the syringe directly into the lower vault of one naris accompanied by a modest inhalation. This technique was then used for the second syringe used for the other naris. The patients were instructed to administer the drug either seated or standing with their head in an erect, vertical position.

[3] = oral 200 mg daily, 2-6 months, all patients (199)
[4] = oral 200 mg, Type I hyposmia (57)
[5] = oral 400 mg daily, 2-6 months, all patients (120)
[6] = oral 400 mg, Type I hyposmia (33)
[7] = oral 600 mg daily, 2-12 months, all patients (160)
[8] = oral 600 mg, Type I hyposmia (51)
[9] = oral 800 mg daily, 2-12 months, all patients (28)
[10] = oral 800 mg, Type I hyposmia (12)

Cn1c(=O)c2[nH]cnc2n(C)c1=O [theophylline]
detection threshold (DT), amyl acetate (patients with hyposmia [1]; [3]): 7.9 ± 0.2^c BU | detection threshold (DT), nitrobenzene (patients with hyposmia [1]; [3]): 7.8 ± 0.2^d BU | detection threshold (DT), pyridine (patients with hyposmia [1]; [3]): 7.6 ± 0.2^a BU | detection threshold (DT), thiophene (patients with hyposmia [1]; [3]): 7.5 ± 0.2^c BU | magnitude estimation (ME), amyl acetate (patients with hyposmia [1]; [3]): 15 ± 2^d % | magnitude estimation (ME), nitrobenzene (patients with hyposmia [1]; [3]): 17 ± 2^ % | magnitude estimation (ME), pyridine (patients with hyposmia [1]; [3]): 28 ± 2^a % | magnitude estimation (ME), thiophene (patients with hyposmia [1]; [3]): 21 ± 2^ % | recognition threshold (RT), amyl acetate (patients with hyposmia [1]; [3]): 9.9 ± 0.2^c BU | recognition threshold (RT), nitrobenzene (patients with hyposmia [1]; [3]): 9.5 ± 0.2^a BU | recognition threshold (RT), pyridine (patients with hyposmia [1]; [3]): 9.0 ± 0.2^a BU | recognition threshold (RT), thiophene (patients with hyposmia [1]; [3]): 9.1 ± 0.2^c BU | detection threshold (DT), amyl acetate (patients with hyposmia [1]; [4]): 10.5 ± 0.3^d BU | detection threshold (DT), nitrobenzene (patients with hyposmia [1]; [4]): 10.3 ± 0.3^a BU | detection threshold (DT), pyridine (patients with hyposmia [1]; [4]): 9.5 ± 0.2 BU | detection threshold (DT), thiophene (patients with hyposmia [1]; [4]): 10.1 ± 0.3^d BU | recognition threshold (RT), amyl acetate (patients with hyposmia [1]; [4]): 11.3 ± 0.2^ BU | recognition threshold (RT), nitrobenzene (patients with hyposmia [1]; [4]): 11.2 ± 0.2^d BU | recognition threshold (RT), thiophene (patients with hyposmia [1]; [4]): 11.4 ± 0.2^ BU | total mean increase in ME, all odors (patients with hyposmia [1]; oral 400 mg): 10.4% | detection threshold (DT), amyl acetate (patients with hyposmia [1]; [5]): 7.1 ± 0.3^b BET | detection threshold (DT), nitrobenzene (patients with hyposmia [1]; [5]): 7.2 ± 0.3^c BET | detection threshold (DT), pyridine (patients with hyposmia [1]; [5]): 7.0 ± 0.3^c BET | detection threshold (DT), thiophene (patients with hyposmia [1]; [5]): 6.8 ± 0.4^c BET | magnitude estimation (ME), amyl acetate (patients with hyposmia [1]; [5]): 18 ± 2^c % | magnitude estimation (ME), nitrobenzene (patients with hyposmia [1]; [5]): 23 ± 2^a % | magnitude estimation (ME), thiophene (patients with hyposmia [1]; [5]): 26 ± 2^c % | recognition threshold (RT), nitrobenzene (patients with hyposmia [1]; [5]): 8.9 ± 0.3^b BU | recognition threshold (RT), pyridine (patients with hyposmia [1]; [5]): 8.5 ± 0.3^a BU | recognition threshold (RT), thiophene (patients with hyposmia [1]; [5]): 8.4 ± 0.3^a BU | detection threshold (DT), amyl acetate (patients with hyposmia [1]; [6]): 10.1 ± 0.5^a BU | detection threshold (DT), pyridine (patients with hyposmia [1]; [6]): 8.8 ± 0.5 BU | recognition threshold (RT), amyl acetate (patients with hyposmia [1]; [6]): 11.2 ± 0.3^ BU | recognition threshold (RT), nitrobenzene (patients with hyposmia [1]; [6]): 10.9 ± 0.4^e BU | recognition threshold (RT), thiophene (patients with hyposmia [1]; [6]): 10.8 ± 0.4^d BU | detection threshold (DT), amyl acetate (patients with hyposmia [1]; [7]): 7.8 ± 0.3^a BET | detection threshold (DT), nitrobenzene (patients with hyposmia [1]; [7]): 7.8 ± 0.3^a BET | detection threshold (DT), pyridine (patients with hyposmia [1]; [7]): 7.4 ± 0.2^c BET | detection threshold (DT), thiophene (patients with hyposmia [1]; [7]): 7.1 ± 0.3^a BET | magnitude estimation (ME), amyl acetate (patients with hyposmia [1]; [7]): 15 ± 2^c % | magnitude estimation (ME), nitrobenzene (patients with hyposmia [1]; [7]): 18 ± 2^d % | magnitude estimation (ME), pyridine (patients with hyposmia [1]; [7]): 26 ± 2^d % | magnitude estimation (ME), thiophene (patients with hyposmia [1]; [7]): 21 ± 2^d % | recognition threshold (RT), amyl acetate (patients with hyposmia [1]; [7]): 9.6 ± 0.2^a BU | recognition threshold (RT), nitrobenzene (patients with hyposmia [1]; [7]): 9.1 ± 0.2^c BU | recognition threshold (RT), pyridine (patients with hyposmia [1]; [7]): 9.4 ± 0.2^c BU | recognition threshold (RT), thiophene (patients with hyposmia [1]; [7]): 9.0 ± 0.3^c BU | detection threshold (DT), amyl acetate (patients with hyposmia [1]; [8]): 10.1 ± 0.3^a BU | recognition threshold (RT), amyl acetate (patients with hyposmia [1]; [8]): 11.1 ± 0.2^c BU | recognition threshold (RT), nitrobenzene (patients with hyposmia [1]; [8]): 10.8 ± 0.3^e BU | recognition threshold (RT), pyridine (patients with hyposmia [1]; [8]): 10.9 ± 0.3 BU | recognition threshold (RT), thiophene (patients with hyposmia [1]; [8]): 10.9 ± 0.3^b BU | detection threshold (DT), amyl acetate (patients with hyposmia [1]; [9]): 7.2 ± 0.8 BU | detection threshold (DT), nitrobenzene (patients with hyposmia [1]; [9]): 7.0 ± 0.8^d BU | detection threshold (DT), thiophene (patients with hyposmia [1]; [9]): 7.2 ± 0.7 BU | magnitude estimation (ME), amyl acetate (patients with hyposmia [1]; [9]): 24 ± 2^a % | magnitude estimation (ME), nitrobenzene (patients with hyposmia [1]; [9]): 25 ± 6 ^ % | magnitude estimation (ME), pyridine (patients with hyposmia [1]; [9]): 29 ± 5% | magnitude estimation (ME), thiophene (patients with hyposmia [1]; [9]): 20 ± 4% | recognition threshold (RT), amyl acetate (patients with hyposmia [1]; [9]): 9.0 ± 0.5^b BU | recognition threshold (RT), nitrobenzene (patients with hyposmia [1]; [9]): 7.8 ± 0.8^d BU | recognition threshold (RT), pyridine (patients with hyposmia [1]; [9]): 8.5 ± 0.6^c BU | recognition threshold (RT), thiophene (patients with hyposmia [1]; [9]): 9.6 ± 0.6 BU | detection threshold (DT), amyl acetate (patients with hyposmia [1]; [10]): 10.6 ± 0.5^ BU | detection threshold (DT), nitrobenzene (patients with hyposmia [1]; [10]): 10.1 ± 0.8^ BU | detection threshold (DT), pyridine (patients with hyposmia [1]; [10]): 9.6 ± 0.8 BU | recognition threshold (RT), amyl acetate (patients with hyposmia [1]; [10]): 11.6 ± 0.4^ BU | recognition threshold (RT), nitrobenzene (patients with hyposmia [1]; [10]): 11.3 ± 0.7^ BU | recognition threshold (RT), pyridine (patients with hyposmia [1]; [10]): 10.3 ± 1.0 BU | recognition threshold (RT), thiophene (patients with hyposmia [1]; [10]): 11.6 ± 0.2^ BU | side effects (patients with hyposmia [2]): no side effects
